The values below come from PMC9294463, “Green Synthesis of Thiazolidine-2,4-dione Derivatives and Their Lipoxygenase Inhibition Activity With QSAR and Molecular Docking Studies” (Frontiers in Chemistry, 2022).

By inhibition is commonly meant the relative decrease from the control value, in per cent.

This experiment addresses T1, soybean lipoxygenase (Glycine max, UniProt P08170).
T1 construct: gene LOX1.1
T1 sequence (P08170 1-839): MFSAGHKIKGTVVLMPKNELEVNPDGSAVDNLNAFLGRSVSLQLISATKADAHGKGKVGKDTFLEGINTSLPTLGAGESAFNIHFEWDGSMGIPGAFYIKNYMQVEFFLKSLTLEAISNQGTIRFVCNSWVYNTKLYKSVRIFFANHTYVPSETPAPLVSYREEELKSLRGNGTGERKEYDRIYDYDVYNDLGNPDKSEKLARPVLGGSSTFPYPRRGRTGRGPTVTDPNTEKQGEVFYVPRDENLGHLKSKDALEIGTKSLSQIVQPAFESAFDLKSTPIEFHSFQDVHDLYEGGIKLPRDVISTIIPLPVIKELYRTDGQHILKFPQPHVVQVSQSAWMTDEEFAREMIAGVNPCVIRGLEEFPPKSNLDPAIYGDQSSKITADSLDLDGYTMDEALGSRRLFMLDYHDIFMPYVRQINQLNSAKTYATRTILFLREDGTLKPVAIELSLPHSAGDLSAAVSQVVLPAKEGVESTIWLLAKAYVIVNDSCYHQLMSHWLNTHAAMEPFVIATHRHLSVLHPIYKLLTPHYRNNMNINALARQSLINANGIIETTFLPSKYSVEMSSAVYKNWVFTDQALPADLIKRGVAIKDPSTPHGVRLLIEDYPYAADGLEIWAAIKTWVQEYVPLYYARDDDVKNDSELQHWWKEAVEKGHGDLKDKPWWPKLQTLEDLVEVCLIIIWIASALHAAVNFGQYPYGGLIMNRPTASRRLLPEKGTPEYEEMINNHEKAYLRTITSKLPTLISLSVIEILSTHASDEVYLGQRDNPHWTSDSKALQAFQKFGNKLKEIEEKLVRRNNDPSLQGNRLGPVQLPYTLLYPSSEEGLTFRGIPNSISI
As to the kind of experiment: soybean lipoxygenase inhibition assay, % inhibition at […] (standard). In kind it is biochemical.

For the compound `C[C@H](Cc1ccc(O)c(O)c1)[C@@H](C)Cc1ccc(O)c(O)c1` [NDGA, nordihydroguaiaretic acid], the inhibition at 100 µM stood at 80.8%.
